Assay results from patent US20260176320A1, “MODULATORS OF G-PROTEIN COUPLED RECEPTORS” (priority 2018, published 2026).
Where two headings read alike, the source gives them in different places.

Columns and labels:
Assay type in all cases: cell-based
GLP-1R [1] = molecular target: T1, GLP-1R (Homo sapiens, UniProt P43220); experiment: HitHunter cAMP assay (GLP-1R); conditions: cAMP; for Emax: read-out: (Emax) GLP-1R
Procedure, shortened: (§1)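 Luminescent readout of cAMP by enzyme-fragment immunocompetition gave agonist concentration-response data. Cells (10,000/well) sat in HBSS buffer containing IBMX 625 μM, HEPES 10 mM and BSA 0.2%, exposed to agonist for 30 min at room temperature.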

GIP-R = molecular target: T2, GIP-R (Homo sapiens, UniProt P48546); experiment: HitHunter cAMP assay (GIP-R); conditions: cAMP; for Emax: read-out: (Emax) GIP-R
T2 sequence (P48546 22-466): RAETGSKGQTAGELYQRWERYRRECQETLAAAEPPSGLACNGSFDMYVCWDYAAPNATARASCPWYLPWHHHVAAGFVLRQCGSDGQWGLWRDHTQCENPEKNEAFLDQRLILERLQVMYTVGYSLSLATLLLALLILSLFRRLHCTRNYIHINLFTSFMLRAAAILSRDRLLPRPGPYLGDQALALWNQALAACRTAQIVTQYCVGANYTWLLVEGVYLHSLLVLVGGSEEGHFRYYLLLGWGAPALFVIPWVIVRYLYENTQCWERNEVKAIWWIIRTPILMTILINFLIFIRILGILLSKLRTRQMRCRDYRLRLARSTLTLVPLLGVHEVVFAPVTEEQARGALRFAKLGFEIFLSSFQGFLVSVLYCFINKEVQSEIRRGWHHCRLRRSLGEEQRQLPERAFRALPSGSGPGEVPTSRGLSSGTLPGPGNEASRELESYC
Procedure, shortened: as §1

GLP-1R [2] = molecular target: T1, GLP-1R; experiment: PathHunter β-arrestin assay
Procedure, shortened: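 Overnight-plated cells; 0.2% BSA medium; agonist 22-pt 2× dilution series, duplicate; 90 min, 37 °C/5% CO2; detection reagent 3 h RT, dark; luminescence.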

[3] = Table 3, read-out: EC50 GLP-1R/nM
[4] = Table 3A, read-out: EC50 GLP-1R/nM
[5] = Table 3, read-out: EC50 GIP-R/nM
[6] = Table 3A, read-out: EC50 GIP-R/nM
[7] = PathHunter β-arrestin assay, read-out: β-arrestin activity EC50

T1 sequence (P43220 24-463): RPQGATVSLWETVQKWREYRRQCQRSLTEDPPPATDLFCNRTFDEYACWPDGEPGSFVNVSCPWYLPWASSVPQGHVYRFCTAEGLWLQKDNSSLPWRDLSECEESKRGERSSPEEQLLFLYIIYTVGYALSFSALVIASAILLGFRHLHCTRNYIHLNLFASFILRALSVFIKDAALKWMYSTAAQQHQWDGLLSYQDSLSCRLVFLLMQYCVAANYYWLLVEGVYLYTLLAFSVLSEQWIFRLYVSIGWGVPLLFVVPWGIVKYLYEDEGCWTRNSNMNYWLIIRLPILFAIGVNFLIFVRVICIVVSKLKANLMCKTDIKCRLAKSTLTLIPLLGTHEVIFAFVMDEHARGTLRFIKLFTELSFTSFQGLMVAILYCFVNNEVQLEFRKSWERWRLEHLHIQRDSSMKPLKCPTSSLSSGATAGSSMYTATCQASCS

Structure (SMILES)	EC50 (GLP-1R [1]; EC50 GLP-1R/nM, Table 3) [nM]	EC50 (GLP-1R [1]; EC50 GLP-1R/nM, Table 3A) [nM]	Emax (GLP-1R [1]; Table 3) [%]	Emax (GLP-1R [1]; Table 3A) [%]	EC50 (GIP-R; EC50 GIP-R/nM, Table 3) [nM]	EC50 (GIP-R; EC50 GIP-R/nM, Table 3A) [nM]	Emax (GIP-R; Table 3) [%]	Emax (GIP-R; Table 3A) [%]	EC50 (GLP-1R [2]) [nM]	EC50 (GLP-1R [1]; [3]) [nM]	EC50 (GLP-1R [1]; [4]) [nM]	EC50 (GIP-R; [5]) [nM]	EC50 (GIP-R; [6]) [nM]	EC50 (GLP-1R [2]; [7]) [nM]	EC50 (GIP-R; read-out: EC50 GIP-R/nM, Table 3A) [nM]
CCCCCCCCCCCCCCCC(=O)N[C@@H](CCC(=O)NCCCC[C@H](NC(=O)[C@H](CO)NC(=O)[C@@H]1CCCN1C(=O)[C@@H]1CCCN1C(=O)[C@@H]1CCCN1C(=O)[C@H](C)NC(=O)CNC(=O)[C@H](CO)NC(=O)[C@H](CO)NC(=O)[C@@H]1CCCN1C(=O)CNC(=O)CNC(=O)[C@H](C)NC(=O)[C@H](CC(C)C)NC(=O)[C@H](CC(C)C)NC(=O)[C@H](Cc1c[nH]c2ccccc12)NC(=O)[C@H](CC(N)=O)NC(=O)[C@@H](NC(=O)[C@H](Cc1ccccc1)NC(=O)[C@H](CCC(=O)O)NC(=O)C(C)(C)NC(=O)[C@H](C)NC(=O)[C@H](C)NC(=O)[C@H](CCC(N)=O)NC(=O)[C@H](CCCCN)NC(=O)[C@H](CC(=O)O)NC(=O)[C@H](CC(C)C)NC(=O)[C@H](Cc1ccc(O)cc1)NC(=O)[C@@H](NC(=O)[C@H](CO)NC(=O)[C@H](Cc1ccc(O)cc1)NC(=O)[C@H](CC(=O)O)NC(=O)[C@H](CO)NC(=O)[C@@H](NC(=O)[C@H](Cc1ccccc1)NC(=O)[C@@H](NC(=O)CNC(=O)[C@H](CCC(=O)O)NC(=O)CSCC(=O)NCCN1CCS(=O)(=O)CC1=O)[C@@H](C)O)[C@@H](C)O)[C@@H](C)CC)C(C)C)C(N)=O)C(=O)O [Compound 29]	1 to 10	1 to 10	98	98	1 to 10	100 to 1000	11	11	> 1000	–	–	–	–	–	–
CCCCCCCCCCCCCCCC(=O)N[C@@H](CCC(=O)NCCCC[C@H](NC(=O)[C@H](CO)NC(=O)[C@@H]1CCCN1C(=O)[C@@H]1CCCN1C(=O)[C@@H]1CCCN1C(=O)[C@H](C)NC(=O)CNC(=O)[C@H](CO)NC(=O)[C@H](CO)NC(=O)[C@@H]1CCCN1C(=O)CNC(=O)CNC(=O)[C@H](C)NC(=O)[C@H](CC(C)C)NC(=O)[C@H](CC(C)C)NC(=O)[C@H](Cc1c[nH]c2ccccc12)NC(=O)[C@H](CC(N)=O)NC(=O)[C@@H](NC(=O)[C@H](Cc1ccccc1)NC(=O)[C@H](CCC(=O)O)NC(=O)C(C)(C)NC(=O)[C@H](C)NC(=O)[C@H](C)NC(=O)[C@H](CCC(N)=O)NC(=O)[C@H](CCCCN)NC(=O)[C@H](CC(=O)O)NC(=O)[C@H](CC(C)C)NC(=O)[C@H](Cc1ccc(O)cc1)NC(=O)[C@@H](NC(=O)[C@H](CO)NC(=O)[C@H](Cc1ccc(O)cc1)NC(=O)[C@H](CC(=O)O)NC(=O)[C@H](CO)NC(=O)[C@@H](NC(=O)[C@H](Cc1ccccc1)NC(=O)[C@@H](NC(=O)CNC(=O)[C@H](CCC(=O)O)NC(=O)CSCC(=O)NCCN1CCN(C)C(=O)C1=O)[C@@H](C)O)[C@@H](C)O)[C@@H](C)CC)C(C)C)C(N)=O)C(=O)O [Compound 30]	0.1 to 1	0.1 to 1	97	97	1 to 10	1 to 10	59	59	> 1000	–	–	–	–	–	–
CCCCCCCCCCCCCCCC(=O)N[C@@H](CCC(=O)NCCCC[C@H](NC(=O)[C@H](CO)NC(=O)[C@@H]1CCCN1C(=O)[C@@H]1CCCN1C(=O)[C@@H]1CCCN1C(=O)[C@H](C)NC(=O)CNC(=O)[C@H](CO)NC(=O)[C@H](CO)NC(=O)[C@@H]1CCCN1C(=O)CNC(=O)CNC(=O)[C@H](C)NC(=O)[C@H](CC(C)C)NC(=O)[C@H](CC(C)C)NC(=O)[C@H](Cc1c[nH]c2ccccc12)NC(=O)[C@H](CC(N)=O)NC(=O)[C@@H](NC(=O)[C@H](Cc1ccccc1)NC(=O)[C@H](CCC(=O)O)NC(=O)C(C)(C)NC(=O)[C@H](C)NC(=O)[C@H](C)NC(=O)[C@H](CCC(N)=O)NC(=O)[C@H](CCCCN)NC(=O)[C@H](CC(=O)O)NC(=O)[C@H](CC(C)C)NC(=O)[C@H](Cc1ccc(O)cc1)NC(=O)[C@@H](NC(=O)[C@H](CO)NC(=O)[C@H](Cc1ccc(O)cc1)NC(=O)[C@H](CC(=O)O)NC(=O)[C@H](CO)NC(=O)[C@@H](NC(=O)[C@H](Cc1ccccc1)NC(=O)[C@@H](NC(=O)CNC(=O)[C@H](CCC(=O)O)NC(=O)CSCC(=O)NCCN1CCCNC1=O)[C@@H](C)O)[C@@H](C)O)[C@@H](C)CC)C(C)C)C(N)=O)C(=O)O [Compound 31]	–	–	102	102	–	–	37	37	–	1 to 10	1 to 10	10 to 100	10 to 100	> 1000	–
CCCCCCCCCCCCCCCC(=O)N[C@@H](CCC(=O)NCCCC[C@H](NC(=O)[C@H](CO)NC(=O)[C@@H]1CCCN1C(=O)[C@@H]1CCCN1C(=O)[C@@H]1CCCN1C(=O)[C@H](C)NC(=O)CNC(=O)[C@H](CO)NC(=O)[C@H](CO)NC(=O)[C@@H]1CCCN1C(=O)CNC(=O)CNC(=O)[C@H](C)NC(=O)[C@H](CC(C)C)NC(=O)[C@H](CC(C)C)NC(=O)[C@H](Cc1c[nH]c2ccccc12)NC(=O)[C@H](CC(N)=O)NC(=O)[C@@H](NC(=O)[C@H](Cc1ccccc1)NC(=O)[C@H](CCC(=O)O)NC(=O)C(C)(C)NC(=O)[C@H](C)NC(=O)[C@H](C)NC(=O)[C@H](CCC(N)=O)NC(=O)[C@H](CCCCN)NC(=O)[C@H](CC(=O)O)NC(=O)[C@H](CC(C)C)NC(=O)[C@H](Cc1ccc(O)cc1)NC(=O)[C@@H](NC(=O)[C@H](CO)NC(=O)[C@H](Cc1ccc(O)cc1)NC(=O)[C@H](CC(=O)O)NC(=O)[C@H](CO)NC(=O)[C@@H](NC(=O)[C@H](Cc1ccccc1)NC(=O)[C@@H](NC(=O)CNC(=O)[C@H](CCC(=O)O)NC(=O)CSCC(=O)NCCN1CCNCC1=O)[C@@H](C)O)[C@@H](C)O)[C@@H](C)CC)C(C)C)C(N)=O)C(=O)O [Compound 33]	–	–	100	100	–	–	43	43	–	0.1 to 1	0.1 to 1	10 to 100	10 to 100	> 1000	–
CCCCCCCCCCCCCCCC(=O)N[C@@H](CCC(=O)NCCCC[C@H](NC(=O)[C@H](CO)NC(=O)[C@@H]1CCCN1C(=O)[C@@H]1CCCN1C(=O)[C@@H]1CCCN1C(=O)[C@H](C)NC(=O)CNC(=O)[C@H](CO)NC(=O)[C@H](CO)NC(=O)[C@@H]1CCCN1C(=O)CNC(=O)CNC(=O)[C@H](C)NC(=O)[C@H](CC(C)C)NC(=O)[C@H](CC(C)C)NC(=O)[C@H](Cc1c[nH]c2ccccc12)NC(=O)[C@H](CC(N)=O)NC(=O)[C@@H](NC(=O)[C@H](Cc1ccccc1)NC(=O)[C@H](CCC(=O)O)NC(=O)C(C)(C)NC(=O)[C@H](C)NC(=O)[C@H](C)NC(=O)[C@H](CCC(N)=O)NC(=O)[C@H](CCCCN)NC(=O)[C@H](CC(=O)O)NC(=O)[C@H](CC(C)C)NC(=O)[C@H](Cc1ccc(O)cc1)NC(=O)[C@@H](NC(=O)[C@H](CO)NC(=O)[C@H](Cc1ccc(O)cc1)NC(=O)[C@H](CC(=O)O)NC(=O)[C@H](CO)NC(=O)[C@@H](NC(=O)[C@H](Cc1ccccc1)NC(=O)[C@@H](NC(=O)CNC(=O)[C@H](CCC(=O)O)NC(=O)CSCC(=O)NCCN1CC(=O)NC1=O)[C@@H](C)O)[C@@H](C)O)[C@@H](C)CC)C(C)C)C(N)=O)C(=O)O [Compound 34]	–	–	107	107	–	–	20 to 38	20 to 38	–	0.1 to 1	0.1 to 1	1 to 10	1 to 100	> 1000	–
CCCCCCCCCCCCCCCC(=O)N[C@@H](CCC(=O)NCCCC[C@H](NC(=O)[C@H](CO)NC(=O)[C@@H]1CCCN1C(=O)[C@@H]1CCCN1C(=O)[C@@H]1CCCN1C(=O)[C@H](C)NC(=O)CNC(=O)[C@H](CO)NC(=O)[C@H](CO)NC(=O)[C@@H]1CCCN1C(=O)CNC(=O)CNC(=O)[C@H](C)NC(=O)[C@H](CC(C)C)NC(=O)[C@H](CC(C)C)NC(=O)[C@H](Cc1c[nH]c2ccccc12)NC(=O)[C@H](CC(N)=O)NC(=O)[C@@H](NC(=O)[C@H](Cc1ccccc1)NC(=O)[C@H](CCC(=O)O)NC(=O)C(C)(C)NC(=O)[C@H](C)NC(=O)[C@H](C)NC(=O)[C@H](CCC(N)=O)NC(=O)[C@H](CCCCN)NC(=O)[C@H](CC(=O)O)NC(=O)[C@H](CC(C)C)NC(=O)[C@H](Cc1ccc(O)cc1)NC(=O)[C@@H](NC(=O)[C@H](CO)NC(=O)[C@H](Cc1ccc(O)cc1)NC(=O)[C@H](CC(=O)O)NC(=O)[C@H](CO)NC(=O)[C@@H](NC(=O)[C@H](Cc1ccccc1)NC(=O)[C@@H](NC(=O)CNC(=O)[C@H](CCC(=O)O)NC(=O)CSCC(=O)NCCN1CCC(C)(C)C1=O)[C@@H](C)O)[C@@H](C)O)[C@@H](C)CC)C(C)C)C(N)=O)C(=O)O [Compound 35]	0.1 to 1	0.1 to 1	110	110	1 to 10	–	20 to 37	20 to 37	> 1000	–	–	–	–	–	1 to 100
